Among the data in ChEMBL document CHEMBL4483862, “Open-source discovery of chemical leads for next-generation chemoprotective antimalarials” (2018) are IC50 and IC90 values, retold here.

The test system of this assay is Plasmodium berghei. Description: Luciferase/luciferin-expressing antifolate-resistant parasites were used to infect a culture of HepG2 cells that were pre-incubated with compounds. Infected hepatocytes emit light due to the luciferase reaction. Assay results are presented as the percent inhibition of light emission compared to control. […]. The assay is classed as functional. To be noted: sporozoite; for IC90: read-out: LUCIFERASE INFECTION ASSAY - IC90.

The mark [1] stands for this setting: read-out: LUCIFERASE INFECTION ASSAY - IC50.

For the molecule `NNc1nc(C(F)(F)F)nc2c1cnn2Cc1ccccc1`, the 90% effect concentration (IC90) (as a rule, the concentration at which the effect reaches the 90% level) is over 10 µM. Besides, the 50% inhibitory concentration (IC50) – broadly, the midpoint of a concentration-inhibition curve – (FFLUC_HILL_SLOPE 3.09, FFLUC_R_SQUARED 0.0505, read-out: LUCIFERASE INFECTION ASSAY - IC50) was over 10 µM.
As for `OCc1ccc(-c2cnc3cnc(-c4ccc(CNc5ccccc5)cc4)cn23)cc1`, the IC90 is over 8.12 µM. In addition, the IC50 under setting [1] is 6.07 µM.
In the case of `COc1cc(OC)cc(-c2cc3c(Nc4cccc(S(C)(=O)=O)c4)nccc3n2C)c1`, the IC90 is over 10 µM. For the same molecule, the IC50 (PBLUC_HILL_SLOPE 2.63, PBLUC_R_SQUARED 0.0611, read-out: LUCIFERASE INFECTION ASSAY - IC50) was 6.92 µM.
For `O=S(=O)(/N=C(\N/N=C/c1ccc(Cl)cc1)N1CCCC1)c1ccc(-n2nc(C(F)(F)F)cc2-c2cccs2)cc1`, the IC90 was over 5.44 µM. In addition, the IC50 (FFLUC_HILL_SLOPE 13, FFLUC_R_SQUARED 0.6, read-out: LUCIFERASE INFECTION ASSAY - IC50) was over 5.44 µM.
As for `OC(c1cccc(C(F)(F)F)c1)c1nnc(Nc2ccccc2)s1` (centres undefined), the concentration for an effect of 90% (IC90) is over 10 µM. The IC50 (PBLUC_HILL_SLOPE 2.28, PBLUC_R_SQUARED 0.325, read-out: LUCIFERASE INFECTION ASSAY - IC50) is 7.1 µM.
For the molecule `Cc1c(C)n(-c2nc3ccccc3s2)c2ncnc(NCCCN(C)C)c12`, the concentration for an effect of 90% (IC90) is over 8.67 µM. The concentration for half-maximal inhibition (IC50) (HEPG2TOX_HILL_SLOPE 12.8, HEPG2TOX_R_SQUARED 0.501, PBLUC_HILL_SLOPE 2.59, PBLUC_R_SQUARED 0.498, read-out: LUCIFERASE INFECTION ASSAY - IC50) is 7.19 µM.
For the molecule `CCOc1ccccc1CCC(=O)NCc1ccc(CS(N)(=O)=O)cc1`, the IC90 was over 10 µM. Also, under setting [1], the IC50 was over 10 µM.
On to `Cc1cc(C(C)(C)C)cc(C)c1CCN1C(=O)CSC1c1cccnc1` (centres undefined), for which the IC90 was over 10 µM. Further, the IC50 under setting [1] is over 10 µM.
As to `CCN(Cc1ccccc1)S(=O)(=O)c1ccc2c(c1)CCCN2C(C)=O`, the IC90 is over 10 µM. Besides, under “PBLUC_HILL_SLOPE 1.76, PBLUC_R_SQUARED 0.382, read-out: LUCIFERASE INFECTION ASSAY - IC50”, the IC50 was determined as 8.69 µM.
Turning to `Cc1ccc(S(=O)(=O)N(C)c2ccc(OCc3coc(-c4cccs4)n3)cc2)cc1`, the IC90 was over 10 µM. The IC50 under setting [1] was over 10 µM.
`O=C1C(=O)N(Cc2ccc(F)cc2)c2c1cccc2C(F)(F)F`: the IC90 worked out at 6.88 µM. For the same molecule, for the setting “HEPG2TOX_HILL_SLOPE 12.5, HEPG2TOX_R_SQUARED 0.837, PBLUC_HILL_SLOPE 3.51, PBLUC_R_SQUARED 0.677, read-out: LUCIFERASE INFECTION ASSAY - IC50”, the concentration for half-maximal inhibition (IC50) came to 3.68 µM.
Consider `O=C(Nc1ccc(Cl)c(S(=O)(=O)N2CCCC2)c1)c1[nH]nc2ccccc12`, for which the 90% effect concentration (IC90) was over 10 µM. Also, the IC50 (HEPG2TOX_HILL_SLOPE 0.202, HEPG2TOX_R_SQUARED 0.183, PBLUC_HILL_SLOPE 12.1, PBLUC_R_SQUARED 0.78, read-out: LUCIFERASE INFECTION ASSAY - IC50) amounted to 9.03 µM.
As for `c1ccc(-c2cn3nc(NCC(c4cccs4)N4CCOCC4)sc3n2)cc1` (centres undefined), the concentration for an effect of 90% (IC90) was 6.67 µM. Under “PBLUC_HILL_SLOPE 82.8, PBLUC_R_SQUARED 0.111, read-out: LUCIFERASE INFECTION ASSAY - IC50”, the IC50 was determined as 6.5 µM.
As to `O=C(NNC(=O)c1sc(-c2ccco2)nc1-c1ccccc1)c1ccccn1`, the 90% effect concentration (IC90) was 3.33 µM. Besides, the IC50 (HEPG2TOX_HILL_SLOPE 1.58, HEPG2TOX_R_SQUARED 0.893, PBLUC_HILL_SLOPE 37.6, PBLUC_R_SQUARED 0.722, read-out: LUCIFERASE INFECTION ASSAY - IC50) amounted to 3.14 µM.
As for `Cc1cccc(Nc2cc3[nH]c(-c4ccc(C(=O)N(C)C)cc4)cc3cn2)c1`, the 90% effect concentration (IC90) was over 10 µM. Also, the IC50 under setting [1] was 6.24 µM.
The corresponding values for `COC(=O)c1cc(C#N)c(SCC(=O)c2ccc(Cl)cc2)nc1C(OC)OC` are over 7.84 µM and over 7.84 µM.
Consider `O=C(N/N=C(\Cc1ncc[nH]1)c1ccccc1)c1ccncc1`, for which the IC90 is 3.77 µM. Also, under “HEPG2TOX_HILL_SLOPE 3.38, HEPG2TOX_R_SQUARED 0.998, PBLUC_HILL_SLOPE 17.1, PBLUC_R_SQUARED 0.54, read-out: LUCIFERASE INFECTION ASSAY - IC50”, the half-maximal inhibitory concentration (IC50) was 3.31 µM.
In the case of `Cc1csc(C(C#N)C(=O)CSc2nc(-c3ccc(Br)cc3)nc3ccccc23)n1` (centres undefined), the IC90 is over 10 µM. For the same molecule, for the setting “FFLUC_HILL_SLOPE 1.1, FFLUC_R_SQUARED 0.67, read-out: LUCIFERASE INFECTION ASSAY - IC50”, the IC50 is over 10 µM.
For the molecule `COCCCNC(=O)Cc1ccc(S(=O)(=O)N2CCOCC2)s1`, the IC90 is over 10 µM. Also, the 50% inhibitory concentration (IC50) under setting [1] was over 10 µM.
In the case of `Cc1ccc(-n2c(SCC(=O)N3CCC(C)Sc4ccccc43)nnc2-c2ccccc2)cc1C` (centres undefined), the IC90 is over 10 µM. The half-maximal inhibitory concentration (IC50) (FFLUC_HILL_SLOPE 12.3, FFLUC_R_SQUARED 0.54, HEPG2TOX_HILL_SLOPE 7.7, HEPG2TOX_R_SQUARED 0.421, PBLUC_HILL_SLOPE 3.98, PBLUC_R_SQUARED 0.233, read-out: LUCIFERASE INFECTION ASSAY - IC50) is 6.2 µM.
For `O=C(O)C1C2C=CC(O2)C1C(=O)Nc1ccc(OC(F)(F)F)cc1` (centres undefined), the IC90 is over 9.61 µM. For the setting “PBLUC_HILL_SLOPE 1.22, PBLUC_R_SQUARED 0.106, read-out: LUCIFERASE INFECTION ASSAY - IC50”, the half-inhibitory concentration (IC50) was over 9.61 µM.
As to `COc1cc(C(=O)OCC(=O)c2ccc(-c3ccccc3)cc2)c([N+](=O)[O-])cc1OC`, the IC90 was over 10 µM. Further, the IC50 (PBLUC_HILL_SLOPE 1.3, PBLUC_R_SQUARED 0.199, read-out: LUCIFERASE INFECTION ASSAY - IC50) was over 10 µM.
As to `CCOC(=O)c1[nH]c(C)c(C(=O)OCC(=O)Nc2ccc(S(=O)(=O)NC3=NCCCCC3)cc2)c1C`, the concentration for an effect of 90% (IC90) is over 10 µM. The IC50 under setting [1] was over 10 µM.
Consider `Cc1ccc(Nc2ccc(-c3nc4ccccc4[nH]3)cn2)cc1C`, for which the IC90 was found to be 4.25 µM. Moreover, where the note is “HEPG2TOX_HILL_SLOPE 3.79, 0.829, HEPG2TOX_R_SQUARED 0.701, 0.968, PBLUC_HILL_SLOPE 2.85, 14.2, PBLUC_R_SQUARED 0.393, 0.513, read-out: LUCIFERASE INFECTION ASSAY - IC50”, the half-inhibitory concentration (IC50) was found to be 2.27 µM.
Consider `OCc1ccc(-c2cnc3ccc(-c4cccc(OC(F)(F)F)c4)nn23)cc1`, for which the concentration for an effect of 90% (IC90) worked out at 3.46 µM. Also, for the setting “FFLUC_HILL_SLOPE 15.5, FFLUC_R_SQUARED 0.126, HEPG2TOX_HILL_SLOPE 8.34, HEPG2TOX_R_SQUARED 0.955, PBLUC_HILL_SLOPE 1.79, PBLUC_R_SQUARED 0.869, read-out: LUCIFERASE INFECTION ASSAY - IC50”, the concentration for half-maximal inhibition (IC50) worked out at 1.01 µM.
In the case of `C=CCc1c(C)[nH]c2c(-c3ccccc3)cnn2c1=O`, the IC90 is 12.1 µM. Besides, where the note is “PBLUC_HILL_SLOPE 3.12, PBLUC_R_SQUARED 0.621, read-out: LUCIFERASE INFECTION ASSAY - IC50”, the IC50 was determined as 6 µM.
With `C#CCSc1nnc(-c2ccc(C(C)(C)C)cc2)n1C`, the concentration for an effect of 90% (IC90) amounted to 5.91 µM. Besides, the half-maximal inhibitory concentration (IC50) (PBLUC_HILL_SLOPE 2.86, PBLUC_R_SQUARED 0.337, read-out: LUCIFERASE INFECTION ASSAY - IC50) was 2.74 µM.
Take `Nc1ncc(-c2cccc(OC(F)(F)F)c2)cc1-c1cncc2ccccc12`: the IC90 turned out to be 3.99 µM. Moreover, the concentration for half-maximal inhibition (IC50) (HEPG2TOX_HILL_SLOPE 2.29, HEPG2TOX_R_SQUARED 0.959, PBLUC_HILL_SLOPE 12.1, PBLUC_R_SQUARED 0.284, read-out: LUCIFERASE INFECTION ASSAY - IC50) is 3.33 µM.
As to `CC(C)c1ccc(NC(=O)c2csc(C(O)c3ccccc3)n2)cc1` (centres undefined), the IC90 is over 10 µM. The half-inhibitory concentration (IC50) (HEPG2TOX_HILL_SLOPE 0.582, HEPG2TOX_R_SQUARED 0.837, PBLUC_HILL_SLOPE 1.67, PBLUC_R_SQUARED 0.415, read-out: LUCIFERASE INFECTION ASSAY - IC50) was 7.47 µM.
For `CC1(C)CC(=O)c2c(SCCOC(=O)Nc3ccccc3)sc(C#N)c2C1`, the IC90 is over 8.24 µM. In addition, the half-inhibitory concentration (IC50) under setting [1] was over 8.24 µM.
Regarding `CCOC(=O)c1c(C)[nH]c(C(=O)COC(=O)Cn2[nH]c(=O)c3ccccc3c2=O)c1C`, the IC90 was over 10 µM. Also, the concentration for half-maximal inhibition (IC50) (HEPG2TOX_HILL_SLOPE 2.60, 1.21, HEPG2TOX_R_SQUARED 0.645, 0.988, read-out: LUCIFERASE INFECTION ASSAY - IC50) was over 10 µM.
As for `CCCNC(=O)C1(C)CCN(CCCC(=O)c2ccc(C)c(C)c2)C1` (centres undefined), the 90% effect concentration (IC90) was over 9.58 µM. For the same molecule, the half-inhibitory concentration (IC50) under setting [1] was over 9.58 µM.
As to `CNC(=O)c1csc(C(O)c2cccc(C(F)(F)F)c2)n1` (centres undefined), the IC90 stood at 3.81 µM. Besides, under “HEPG2TOX_HILL_SLOPE 1.87, HEPG2TOX_R_SQUARED 0.885, PBLUC_HILL_SLOPE 18.2, PBLUC_R_SQUARED 0.279, read-out: LUCIFERASE INFECTION ASSAY - IC50”, the half-maximal inhibitory concentration (IC50) was 3.38 µM.
For the molecule `FC(F)Sc1ccc2nc3ccccc3c(N3CCOCC3)c2c1`, the IC90 was determined as 0.134 µM. In addition, the half-maximal inhibitory concentration (IC50) (PBLUC_HILL_SLOPE 15.6, PBLUC_R_SQUARED 0.79, read-out: LUCIFERASE INFECTION ASSAY - IC50) was found to be 0.117 µM.
In the case of `CCC(C)(C)NC(=O)CSc1nnc(/C=C/c2ccccc2C)[nH]1`, the IC90 is over 10 µM. For the same molecule, the concentration for half-maximal inhibition (IC50) under setting [1] was over 10 µM.
For the molecule `COc1ccc(NC(=O)c2ccoc2)cc1S(=O)(=O)Nc1ccc(Br)cc1`, the concentration for an effect of 90% (IC90) turned out to be 1.62 µM. For the same molecule, the concentration for half-maximal inhibition (IC50) (HEPG2TOX_HILL_SLOPE 1.42, HEPG2TOX_R_SQUARED 0.956, PBLUC_HILL_SLOPE 2.25, PBLUC_R_SQUARED 0.81, read-out: LUCIFERASE INFECTION ASSAY - IC50) came to 0.611 µM.
In the case of `Cc1cc(C(=O)N/N=C/c2ccc(Sc3ncccn3)c([N+](=O)[O-])c2)c(C)n1-c1ccccc1`, the IC90 is over 10 µM. Further, the half-maximal inhibitory concentration (IC50) under setting [1] was over 10 µM.
